# Literature values in patent publication US12012625B2, “Method for producing bioactive composition” (Imam Abdulrahman Bin Faisal University, priority 2020, dated 2024).
compound,measurement,setting,value
Cc1cc(=O)c2c(O)c3c(O)cc(=O)c4c3c3c(c(Cl)c(O)c1c23)C(C)(C)C=4O [chlorxanthomycin],growth inhibition,B. subtilis,inhibited the growth
same,growth inhibition,B. amyloliquefaciens,inhibited the growth
